Earlier results, collected in patent US20250369985A1, “METHOD FOR DETERMINING THE THERAPEUTIC REGIMEN FOR AN INDIVIDUAL AND ITS USE” (MOSAIQUES DIAGNOSTICS AND THERAPEUTICS AG, priority 2022, published 2025).
Where two headings read alike, the source gives them in different places.

Test system: urinary proteins/peptides (71 biomarkers of CD71 classifier)
[1] = peptide 99900220 (Seq. ID No. 1)
[2] = peptide 99900467 (Seq. ID No. 2)
[3] = peptide 99901399 (Seq. ID No. 3)
[4] = peptide 99902592 (Seq. ID No. 4)
[5] = peptide 99903025 (Seq. ID No. 5)
[6] = peptide 99904405 (Seq. ID No. 6)
[7] = peptide 99904666 (Seq. ID No. 7)
[8] = peptide 99904862 (Seq. ID No. 8)
[9] = peptide 99905044 (Seq. ID No. 9)
[10] = peptide 99905259 (Seq. ID No. 10)
[11] = peptide 99905274 (Seq. ID No. 11)
[12] = peptide 99905379 (Seq. ID No. 12)
[13] = peptide 99905423 (Seq. ID No. 13)
[14] = peptide 99905509 (Seq. ID No. 14)
[15] = peptide 99905551 (Seq. ID No. 15)
[16] = peptide 99906176 (Seq. ID No. 16)
[17] = peptide 99907275 (Seq. ID No. 17)
[18] = peptide 99907807 (Seq. ID No. 18)
[19] = peptide 99908755 (Seq. ID No. 19)
[20] = peptide 99908795 (Seq. ID No. 20)
[21] = peptide 99908916 (Seq. ID No. 21)
[22] = peptide 99909059 (Seq. ID No. 22)
[23] = peptide 99910002 (Seq. ID No. 23)
[24] = peptide 99910032 (Seq. ID No. 24)
[25] = peptide 99910407 (Seq. ID No. 25)
[26] = peptide 99910483 (Seq. ID No. 26)
[27] = peptide 99910554 (Seq. ID No. 27)
[28] = peptide 99910883 (Seq. ID No. 28)
[29] = peptide 99911002 (Seq. ID No. 29)
[30] = peptide 99911193 (Seq. ID No. 30)
[31] = peptide 99911415 (Seq. ID No. 31)
[32] = peptide 99911559 (Seq. ID No. 32)
[33] = peptide 99911777 (Seq. ID No. 33)
[34] = peptide 99912101 (Seq. ID No. 34)
[35] = peptide 99912211 (Seq. ID No. 35)
[36] = peptide 99912366 (Seq. ID No. 36)
[37] = peptide 99912411 (Seq. ID No. 37)
[38] = peptide 99912661 (Seq. ID No. 38)
[39] = peptide 99913200 (Seq. ID No. 39)
[40] = peptide 99913322 (Seq. ID No. 40)
[41] = peptide 99913825 (Seq. ID No. 41)
[42] = peptide 99914211 (Seq. ID No. 42)
[43] = peptide 99914445 (Seq. ID No. 43)
[44] = peptide 99914876 (Seq. ID No. 44)
[45] = peptide 99914887 (Seq. ID No. 45)
[46] = peptide 99914893 (Seq. ID No. 46)
[47] = peptide 99914935 (Seq. ID No. 47)
[48] = peptide 99915015 (Seq. ID No. 48)
[49] = peptide 99915755 (Seq. ID No. 49)
[50] = peptide 99915778 (Seq. ID No. 50)
[51] = peptide 99915883 (Seq. ID No. 51)
[52] = peptide 99916170 (Seq. ID No. 52)
[53] = peptide 99916177 (Seq. ID No. 53)
[54] = peptide 99916611 (Seq. ID No. 54)
[55] = peptide 99916615 (Seq. ID No. 55)
[56] = peptide 99916966 (Seq. ID No. 56)
[57] = peptide 99917047 (Seq. ID No. 57)
[58] = peptide 99917221 (Seq. ID No. 58)
[59] = peptide 99917280 (Seq. ID No. 59)
[60] = peptide 99917288 (Seq. ID No. 60)
[61] = peptide 99917419 (Seq. ID No. 61)
[62] = peptide 99917505 (Seq. ID No. 62)
[63] = peptide 99917596 (Seq. ID No. 63)
[64] = peptide 99917626 (Seq. ID No. 64)
[65] = peptide 99917690 (Seq. ID No. 65)
[66] = peptide 99917825 (Seq. ID No. 66)
[67] = peptide 99917890 (Seq. ID No. 67)
[68] = peptide 99917947 (Seq. ID No. 68)
[69] = peptide 99918831 (Seq. ID No. 69)
[70] = peptide 99918906 (Seq. ID No. 70)
[71] = peptide 99918909 (Seq. ID No. 71)

SMILES: CCOc1nc2cccc(C(=O)O)c2n1Cc1ccc(-c2ccccc2-c2nnn[nH]2)cc1 [drug A]
- f (fold-change of the abundance) [1]: 1
- f (fold-change of the abundance) [2]: 1
- f (fold-change of the abundance) [3]: 1
- f (fold-change of the abundance) [4]: 1
- f (fold-change of the abundance) [5]: 1
- f (fold-change of the abundance) [6]: 1
- f (fold-change of the abundance) [7]: 1
- f (fold-change of the abundance) [8]: 1.4
- f (fold-change of the abundance) [9]: 1
- f (fold-change of the abundance) [10]: 1.5
- f (fold-change of the abundance) [11]: 1
- f (fold-change of the abundance) [12]: 1
- f (fold-change of the abundance) [13]: 1.15
- f (fold-change of the abundance) [14]: 1
- f (fold-change of the abundance) [15]: 1
- f (fold-change of the abundance) [16]: 1.47
- f (fold-change of the abundance) [17]: 1
- f (fold-change of the abundance) [18]: 1
- f (fold-change of the abundance) [19]: 1
- f (fold-change of the abundance) [20]: 1.49
- f (fold-change of the abundance) [21]: 1
- f (fold-change of the abundance) [22]: 0.65
- f (fold-change of the abundance) [23]: 1
- f (fold-change of the abundance) [24]: 1
- f (fold-change of the abundance) [25]: 1
- f (fold-change of the abundance) [26]: 1
- f (fold-change of the abundance) [27]: 1
- f (fold-change of the abundance) [28]: 0.81
- f (fold-change of the abundance) [29]: 1
- f (fold-change of the abundance) [30]: 1.26
- f (fold-change of the abundance) [31]: 1
- f (fold-change of the abundance) [32]: 1
- f (fold-change of the abundance) [33]: 1
- f (fold-change of the abundance) [34]: 1
- f (fold-change of the abundance) [35]: 1.78
- f (fold-change of the abundance) [36]: 1
- f (fold-change of the abundance) [37]: 1
- f (fold-change of the abundance) [38]: 1
- f (fold-change of the abundance) [39]: 1
- f (fold-change of the abundance) [40]: 1
- f (fold-change of the abundance) [41]: 0.68
- f (fold-change of the abundance) [42]: 1
- f (fold-change of the abundance) [43]: 1
- f (fold-change of the abundance) [44]: 1
- f (fold-change of the abundance) [45]: 1
- f (fold-change of the abundance) [46]: 0.67
- f (fold-change of the abundance) [47]: 1
- f (fold-change of the abundance) [48]: 1.83
- f (fold-change of the abundance) [49]: 0.67
- f (fold-change of the abundance) [50]: 1
- f (fold-change of the abundance) [51]: 1
- f (fold-change of the abundance) [52]: 1.27
- f (fold-change of the abundance) [53]: 1
- f (fold-change of the abundance) [54]: 1
- f (fold-change of the abundance) [55]: 1
- f (fold-change of the abundance) [56]: 1
- f (fold-change of the abundance) [57]: 0.64
- f (fold-change of the abundance) [58]: 0.74
- f (fold-change of the abundance) [59]: 1
- f (fold-change of the abundance) [60]: 1
- f (fold-change of the abundance) [61]: 1
- f (fold-change of the abundance) [62]: 1
- f (fold-change of the abundance) [63]: 1
- f (fold-change of the abundance) [64]: 1
- f (fold-change of the abundance) [65]: 1
- f (fold-change of the abundance) [66]: 1
- f (fold-change of the abundance) [67]: 1
- f (fold-change of the abundance) [68]: 1
- f (fold-change of the abundance) [69]: 1
- f (fold-change of the abundance) [70]: 1
- f (fold-change of the abundance) [71]: 1

SMILES: CC(=O)S[C@@H]1CC2=CC(=O)CC[C@]2(C)[C@H]2CC[C@@]3(C)[C@@H](CC[C@@]34CCC(=O)O4)[C@H]12 [drug B, Spironolactone]
- f (fold-change of the abundance) [1]: 1
- f (fold-change of the abundance) [2]: 1
- f (fold-change of the abundance) [3]: 1
- f (fold-change of the abundance) [4]: 1
- f (fold-change of the abundance) [5]: 1
- f (fold-change of the abundance) [6]: 1
- f (fold-change of the abundance) [7]: 1
- f (fold-change of the abundance) [8]: 1
- f (fold-change of the abundance) [9]: 1
- f (fold-change of the abundance) [10]: 1
- f (fold-change of the abundance) [11]: 1
- f (fold-change of the abundance) [12]: 1
- f (fold-change of the abundance) [13]: 1
- f (fold-change of the abundance) [14]: 0.77
- f (fold-change of the abundance) [15]: 1.97
- f (fold-change of the abundance) [16]: 1
- f (fold-change of the abundance) [17]: 1
- f (fold-change of the abundance) [18]: 1
- f (fold-change of the abundance) [19]: 1
- f (fold-change of the abundance) [20]: 1
- f (fold-change of the abundance) [21]: 1
- f (fold-change of the abundance) [22]: 1
- f (fold-change of the abundance) [23]: 1
- f (fold-change of the abundance) [24]: 1
- f (fold-change of the abundance) [25]: 1
- f (fold-change of the abundance) [26]: 0.78
- f (fold-change of the abundance) [27]: 1
- f (fold-change of the abundance) [28]: 1
- f (fold-change of the abundance) [29]: 1
- f (fold-change of the abundance) [30]: 1
- f (fold-change of the abundance) [31]: 1
- f (fold-change of the abundance) [32]: 1
- f (fold-change of the abundance) [33]: 1
- f (fold-change of the abundance) [34]: 1
- f (fold-change of the abundance) [35]: 1
- f (fold-change of the abundance) [36]: 1.5
- f (fold-change of the abundance) [37]: 1
- f (fold-change of the abundance) [38]: 1
- f (fold-change of the abundance) [39]: 1.21
- f (fold-change of the abundance) [40]: 1
- f (fold-change of the abundance) [41]: 0.65
- f (fold-change of the abundance) [42]: 1
- f (fold-change of the abundance) [43]: 1
- f (fold-change of the abundance) [44]: 1.5
- f (fold-change of the abundance) [45]: 1
- f (fold-change of the abundance) [46]: 1
- f (fold-change of the abundance) [47]: 0.72
- f (fold-change of the abundance) [48]: 1
- f (fold-change of the abundance) [49]: 1
- f (fold-change of the abundance) [50]: 1
- f (fold-change of the abundance) [51]: 1
- f (fold-change of the abundance) [52]: 1
- f (fold-change of the abundance) [53]: 1.88
- f (fold-change of the abundance) [54]: 1
- f (fold-change of the abundance) [55]: 1
- f (fold-change of the abundance) [56]: 1
- f (fold-change of the abundance) [57]: 0.82
- f (fold-change of the abundance) [58]: 1
- f (fold-change of the abundance) [59]: 1
- f (fold-change of the abundance) [60]: 1
- f (fold-change of the abundance) [61]: 1
- f (fold-change of the abundance) [62]: 1
- f (fold-change of the abundance) [63]: 1
- f (fold-change of the abundance) [64]: 1
- f (fold-change of the abundance) [65]: 1
- f (fold-change of the abundance) [66]: 1
- f (fold-change of the abundance) [67]: 1
- f (fold-change of the abundance) [68]: 1
- f (fold-change of the abundance) [69]: 1.27
- f (fold-change of the abundance) [70]: 1
- f (fold-change of the abundance) [71]: 0.62
